Data: PubChem BioAssay (NCI)
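Tested at 5 concentrations; 48 h exposure; 96-well plates; endpoints linearly interpolated, else capped at highest concentration. Abbreviation: GI50, concentration required for 50% inhibition of growth. At the TGI there is no net growth.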

Assays:
Test in all cases: growth of human tumour cells (NCI), 48 h
ACHN renal = tested on: ACHN renal
COLO 205 colon = tested on: COLO 205 colon
EKVX NSCLC = tested on: EKVX NSCLC
HCC-2998 colon = tested on: HCC-2998 colon
NCI/ADR-RES ovarian = tested on: NCI/ADR-RES ovarian
SF-295 CNS = tested on: SF-295 CNS
UACC-62 melanoma = tested on: UACC-62 melanoma
UO-31 renal = tested on: UO-31 renal
SK-MEL-2 melanoma = tested on: SK-MEL-2 melanoma
HS 578T breast = tested on: HS 578T breast

SMILES	TGI (ACHN renal)	TGI (COLO 205 colon)	TGI (EKVX NSCLC)	TGI (HCC-2998 colon)	TGI (NCI/ADR-RES ovarian)	TGI (SF-295 CNS)	TGI (UACC-62 melanoma)	TGI (UO-31 renal)	TGI (SK-MEL-2 melanoma)	TGI (HS 578T breast)	GI50 (ACHN renal)	GI50 (COLO 205 colon)	GI50 (EKVX NSCLC)	GI50 (HCC-2998 colon)	GI50 (HS 578T breast)	GI50 (NCI/ADR-RES ovarian)	GI50 (SF-295 CNS)	GI50 (UACC-62 melanoma)	GI50 (UO-31 renal)	GI50 (SK-MEL-2 melanoma)
CC(=O)Nc1ccc(S(=O)(=O)Nc2nnc(S(N)(=O)=O)s2)cc1	> 100 µM	> 100 µM	> 100 µM	> 100 µM	> 100 µM	> 100 µM	> 100 µM	> 100 µM												
CO/C(=N\N=C\c1ccc(Cl)cc1)c1ccncc1	> 100 µM	> 100 µM	> 100 µM	> 100 µM		> 100 µM	> 100 µM	> 100 µM	> 100 µM											
Cc1cc2c(cc1-c1cc3c(cc1C)C(C(C)C)=C(O)C(=O)/C3=C\Nc1nc(-c3ccccc3)cs1)/C(=C/Nc1nc(-c3ccccc3)cs1)C(=O)C(O)=C2C(C)C	31.2 µM	> 100 µM	52.1 µM		63.9 µM	40.9 µM	35.7 µM		50.9 µM	> 100 µM										
O=S(=O)(c1cc(Cl)ccc1Cl)N1CCN(S(=O)(=O)c2cc(Cl)ccc2Cl)CC1	> 100 µM			> 100 µM	> 100 µM	> 100 µM	2.48 µM	> 100 µM	> 100 µM	83.4 µM										
CCN(CC)CCCCCCCCNc1c2ccc(Cl)cc2nc2ccc(OC)cc12	2.5 µM	2.88 µM	6.13 µM	6.99 µM	10.3 µM	3.95 µM	3.22 µM	4.34 µM		> 100 µM	1030 nM	1430 nM	2110 nM	1770 nM	2820 nM	2460 nM	1680 nM	1800 nM	1720 nM	
Cc1cc(O)c(C(C)C)cc1NC(=O)Nc1cccc2ccccc12	27.8 µM		62.7 µM	41 µM	76.2 µM	28.2 µM	25.9 µM	42.9 µM	30.4 µM	62.6 µM										
C(=N\Nc1ncc(-c2cc3cc4c(cc3o2)OCO4)s1)/c1c[nH]c2ccccc12	2.61 µM		6.44 µM	5.13 µM		4.31 µM	3.72 µM	1.57 µM	8.07 µM	6.02 µM	860 nM		1270 nM	2060 nM	2020 nM		1820 nM	1750 nM	348 nM	2600 nM
Cc1ccccc1N=C(N)NC#N	> 100 µM	> 100 µM	> 100 µM	> 100 µM	> 100 µM		> 100 µM	> 100 µM	> 100 µM	> 100 µM										
CC(=O)NC1(C)CCC(C(C)(C)NC(C)=O)CC1 (stereo unspecified)	> 100 µM	> 100 µM	> 100 µM	> 100 µM	> 100 µM	> 100 µM	> 100 µM	> 100 µM		> 100 µM										
Oc1nc(N/N=C/c2c[nH]c3ccccc23)[nH]c1/C=C1\C=Nc2ccccc21	49.1 µM	26.7 µM	89.6 µM		84.5 µM	40.9 µM	37.7 µM		36.5 µM	40.6 µM										
